# Patent publication US11407740B2 (priority 2018, dated 2022)
# System: E. coli
# Experiment: Bacterial susceptibility testing, MIC by broth microdilution (CLSI)
# Settings: Escherichia coli, read-out: E. coli MIC, broth microdilution, 35° C., 18-24 h
# Description: Minimal inhibitory concentrations (MIC) were determined by the broth microdilution method in accordance with the Clinical and Laboratory Standards Institute (CLSI) guidelines. In brief, organism suspensions were adjusted to a 0.5 McFarland standard to yield a final inoculum between 3×10^3 and 7×10^5 colony-forming units (CFU)/mL. Drug dilutions and inocula were made in sterile, cation adjusted Mueller-Hinton Broth (Beckton Dickinson). An inoculum volume of 100 μL was added to wells containing 100 μL of broth with 2-fold serial dilutions of drug.
row,SMILES,MIC [µg/mL]
1,O=c1[nH]cnc(CC(CO)c2ccc(C#Cc3ccc(CN[C@H]4CCOC4)cc3)cc2)c1O (mixture of isomers) [Compound 8],< 1
2,O=c1[nH]cnc(CC(CO)c2ccc(C#Cc3ccc(CN[C@@H]4CCOC4)cc3)cc2)c1O (mixture of isomers) [Compound 11],< 1
3,O=C(NCCF)C(Cc1nc[nH]c(=O)c1O)c1ccc(C#Cc2ccc(CN[C@H]3CCOC3)cc2)cc1 (mixture of isomers) [Compound 30],1 to 8
4,CC(CO)(Cc1nc[nH]c(=O)c1O)c1ccc(C#Cc2ccc(CN[C@H]3CCOC3)cc2)cc1 (mixture of isomers) [Compound 32],< 1
5,O=c1[nH]cnc(CC(CO)c2ccc(C#Cc3ccc(CCN[C@H]4CCOC4)cc3)cc2)c1O (mixture of isomers) [Compound 43],< 1
6,O=C(CO)N1CC[C@@H](NCc2ccc(C#Cc3ccc(C(CO)Cc4nc[nH]c(=O)c4O)cc3)cc2)C1 (mixture of isomers) [Compound 44],< 1
7,O=c1[nH]cnc(CC(CO)c2ccc(C#Cc3ccc(CN[C@@H]4CCNC4)cc3)cc2)c1O (mixture of isomers) [Compound 62],1 to 8
8,COC1CN(Cc2ccc(C#Cc3ccc(C(CN[C@@H](C)CF)Cc4nc[nH]c(=O)c4O)cc3)cc2)C1 (mixture of isomers) [Compound 66],< 1
9,C[C@@H](CF)NCC(Cc1nc[nH]c(=O)c1O)c1ccc(C#Cc2ccc(CN3CC4COCC4C3)cc2)cc1 (mixture of isomers) [Compound 84],< 1
10,CO[C@@H]1CCN(Cc2ccc(C#Cc3ccc(C(CN[C@@H](C)CF)Cc4nc[nH]c(=O)c4O)cc3)cc2)C1 (mixture of isomers) [Compound 86],< 1
11,CO[C@H]1CCN(Cc2ccc(C#Cc3ccc(C(CN[C@@H](C)CF)Cc4nc[nH]c(=O)c4O)cc3)cc2)C1 (mixture of isomers) [Compound 89],< 1
12,C[C@@H](CF)NCC(Cc1nc[nH]c(=O)c1O)c1ccc(C#Cc2ccc(CN3CC[C@@H](C#N)C3)cc2)cc1 (mixture of isomers) [Compound 91],< 1
13,C[C@@H](CF)NCC(Cc1nc[nH]c(=O)c1O)c1ccc(C#Cc2ccc(CN3CC[C@H](C#N)C3)cc2)cc1 (mixture of isomers) [Compound 92],< 1
14,C[C@@H](CF)NCC(Cc1nc[nH]c(=O)c1O)c1ccc(C#Cc2ccc(CNC3COC3)cc2)cc1 (mixture of isomers) [Compound 94],< 1
15,C[C@@H](CF)NCC(Cc1nc[nH]c(=O)c1O)c1ccc(C#Cc2ccc(CN3CC(CC#N)C3)cc2)cc1 (mixture of isomers) [Compound 95],< 1
16,C[C@@H](CF)NCC(Cc1nc[nH]c(=O)c1O)c1ccc(C#Cc2ccc(CN[C@@H]3CCOC3)cc2)cc1 (mixture of isomers) [Compound 108],< 1
17,C[C@@H](CF)NCC(Cc1nc[nH]c(=O)c1O)c1ccc(C#Cc2ccc(CN[C@H]3CCOC3)cc2)cc1 (mixture of isomers) [Compound 110],< 1
18,N#C[C@H]1CCN(Cc2ccc(C#Cc3ccc(C(CNCC(F)F)Cc4nc[nH]c(=O)c4O)cc3)cc2)C1 (mixture of isomers) [Compound 123],< 1
19,C[C@@H](CF)NCC(Cc1nc[nH]c(=O)c1O)c1ccc(C#Cc2ccc(CN3CC4(COC4)C3)cc2)cc1 (mixture of isomers) [Compound 124],1 to 8
20,CO[C@@H]1CCN(Cc2ccc(C#Cc3ccc(C(CNCC(C)Cl)Cc4nc[nH]c(=O)c4O)cc3)cc2)C1 (mixture of isomers) [Compound 125],1 to 8

row,SMILES,MIC [µg/mL]
1,C[C@@H](CF)NCC(Cc1nc[nH]c(=O)c1O)c1ccc(C#Cc2ccc(CN3CC(C4COC4)C3)cc2)cc1 (mixture of isomers) [Compound 126],1 to 8
2,C[C@@H](CF)NCC(Cc1nc[nH]c(=O)c1O)c1ccc(C#Cc2ccc(CN3CC4(CCOC4)C3)cc2)cc1 (mixture of isomers) [Compound 127],1 to 8
3,C[C@@H](CF)NCC(Cc1nc[nH]c(=O)c1O)c1ccc(C#Cc2ccc(CN3CC4(CCO4)C3)cc2)cc1 (mixture of isomers) [Compound 132],< 1
4,COC1CN(Cc2ccc(C#Cc3ccc(C(C)(CN[C@@H](C)CF)Cc4nc[nH]c(=O)c4O)cc3)cc2)C1 (mixture of isomers) [Compound 143],< 1
5,C[C@@H](CO)NCC(Cc1nc[nH]c(=O)c1O)c1ccc(C#Cc2ccc(CN[C@H]3CCOC3)cc2)cc1 (mixture of isomers) [Compound 144],1 to 8
6,NC[C@@H]1CCCN1Cc1ccc(C#Cc2ccc(C(CO)Cc3nc[nH]c(=O)c3O)cc2)cc1 (mixture of isomers) [Compound 145],1 to 8
7,NC[C@H]1CCCN1Cc1ccc(C#Cc2ccc(C(CO)Cc3nc[nH]c(=O)c3O)cc2)cc1 (mixture of isomers) [Compound 148],1 to 8
8,N=[S@]1(=O)CC[C@@H](NCc2ccc(C#Cc3ccc(C(CO)Cc4nc[nH]c(=O)c4O)cc3)cc2)C1 (mixture of isomers) [Compound 150],1 to 8
9,N=[S@@]1(=O)CC[C@H](NCc2ccc(C#Cc3ccc(C(CO)Cc4nc[nH]c(=O)c4O)cc3)cc2)C1 (mixture of isomers) [Compound 151],1 to 8
10,O=C(CO)N(Cc1ccc(C#Cc2ccc(C(CO)Cc3nc[nH]c(=O)c3O)cc2)cc1)[C@@H]1CCNC1 (mixture of isomers) [Compound 154],8 to 32
11,O=c1[nH]cnc(CC(CO)c2ccc(C#Cc3ccc(CN[C@@H]4CCN(CCO)C4)cc3)cc2)c1O (mixture of isomers) [Compound 155],1 to 8
12,O=C(O)CN1CC[C@@H](NCc2ccc(C#Cc3ccc(C(CO)Cc4nc[nH]c(=O)c4O)cc3)cc2)C1 (mixture of isomers) [Compound 156],> 32
13,O=C(CO)NC[C@@H]1CCCN1Cc1ccc(C#Cc2ccc(C(CO)Cc3nc[nH]c(=O)c3O)cc2)cc1 (mixture of isomers) [Compound 158],1 to 8
14,O=c1[nH]cnc(CC(CN[C@H]2CCOC2)c2ccc(C#Cc3ccc(CN4CCOCC4)cc3)cc2)c1O (mixture of isomers) [Compound 166],< 1
15,C[C@@H](CO)NCC(Cc1nc[nH]c(=O)c1O)c1ccc(C#Cc2ccc(CN3CCOCC3)cc2)cc1 (mixture of isomers) [Compound 167],< 1
16,NC(Cc1nc[nH]c(=O)c1O)c1ccc(C#Cc2ccc(CN[C@@H]3CCOC3)cc2)cc1 (mixture of isomers) [Compound 173],< 1
17,O=c1[nH]cnc(CC(CO)c2ccc(/C=C/c3ccc(CN[C@H]4CCOC4)cc3)cc2)c1O (mixture of isomers) [Compound 198],8 to 32
18,CC(=O)N1CC[C@@H](NCc2ccc(C#Cc3ccc(C(CO)Cc4nc[nH]c(=O)c4O)cc3)cc2)C1 (mixture of isomers) [Compound 232],< 1
19,O=C(N[C@@H]1CCN(Cc2ccc(C#Cc3ccc(C(CO)Cc4nc[nH]c(=O)c4O)cc3)cc2)C1)C1CC1 (mixture of isomers) [Compound 256],< 1
20,O=C(CO)N[C@@H]1CCN(Cc2ccc(C#Cc3ccc(C(CO)Cc4nc[nH]c(=O)c4O)cc3)cc2)C1 (mixture of isomers) [Compound 257],1 to 8

# Same assay, conditions: broth microdilution, 35° C., 18-24 h
row,SMILES,E. coli MIC
1,CO[C@@H]1CCN(Cc2ccc(C#Cc3ccc(C(CNCC(C)F)Cc4nc[nH]c(=O)c4O)cc3)cc2)C1 (mixture of isomers) [Compound 135],B (B: >1 μg/mL to ≤8.0 μg/mL)
